{
  "source": "patent US6423693B1",
  "about": "“Growth hormone releasing hormone expression system and methods of use, including use in animals” (Baylor College of Medicine, priority 1997, dated 2002)",
  "key": {"[1]": {"details": "cited from earlier work"}, "[2]": {"test_system": "GH release", "details": "synthetic molecules, Ling et al 1984; cited from earlier work"}, "[3]": {"test_system": "primary pig anterior pituitary cells", "assay": "GH release from primary pig anterior pituitary culture challenged with conditioned media", "type": "cell-based", "details": "24 h stimulation at 37 C; media from 1 million primary pig myoblasts or media mixed with 10 ng synthetic peptide", "method": "Primary pig myoblasts culture was obtained as described (Doumit & Merkel, 1992, Tissue & Cell 24:253-262). The cells were plated at a density of 1 million cells/100 mm plate and maintained in growth media for 2-3 days. The cells were passed for 2 times prior to transfection. The transfection and differentiation was made in the same conditions as for the primary chicken myoblast culture. The media and cells were harvested for analysis 48, 72 and 96 h postdifferentiation in both cases. The efficiency of transfection estimated by β-galactosidase histochemistry on control plates was 10%.\nOne day before harvesting, cells were washed twice in HBSS and changed in MEM, 0.1% BSA. The collected media was conditioned by adding ¼ volumes of 1% triflouroacetic acid (TFA) and 0.001% phenylmethylsulfonylflouride (PMSF), frozen at −80° C., lyophilized, purified on C-18 Sep-Columns (Peninsula Laboratories, CA, USA), relyophilized and used in RIA or resuspended in media conditioned for primary pig anterior pituitary culture. […]\nB. In vitro activity of pSK-GHRH. Since anterior pituitary is the natural target of GHRH stimulation, we determined the biological activity of secreted GHRH from the media of pSK-GHRH transfected primary pig myoblasts (FIG. 8). […]"}},
  "note": "No end group written: not given here.",
  "data": [
    {"substance": "hGHRH(1-40)OH: Human 1-40 OH growth hormone releasing hormone (YADAIFTNSYRKVLGQLSARKLLQDIMSRQQGESNQERGA-OH)", "values": [
      {"measurement": "potency in vivo relative to hGHRH(1-44)NH2", "setting": "[1]", "value": "same potency in vivo as hGHRH(1-44)NH2"}
    ]},
    {"substance": "hGHRH(1-44)OH: non-amidated human GHRH (1-44), Tyr1 to Leu44; the molecule expressed by pSK-GHRH (YADAIFTNSYRKVLGQLSARKLLQDIMSRQQGESNQERGARARL-OH; UniProt P01286 32-75, looked up)", "values": [
      {"measurement": "less effective in releasing GH than the (1-44) amidated form", "setting": "[2]", "value": 30, "unit": "%"}
    ]},
    {"substance": "hGHRH (1-44)NH2: synthetic amidated human growth hormone releasing hormone (1-44) (YADAIFTNSYRKVLGQLSARKLLQDIMSRQQGESNQERGARARL-NH2; UniProt P01286 32-75, looked up)", "values": [
      {"measurement": "GH release", "setting": "[3]", "value": "115 ± 3.2", "unit": "ng/mL"}
    ]}
  ]
}
